Experimental data as given in US6461859B1, “Enzymatic oxidation process for desulfurization of fossil fuels” (Instituto Mexicano del Petroleo, priority 1999, dated 2002).

Legend:
[1] = biological target: T1, poly(ethylene)glycol-modified cytochrome c (PEG-Cyt) (Equus caballus, UniProt P00004); assay: Oxidation of low-sulfur diesel oil enriched with dibenzothiophene (gas chromatogram); type: biochemical; conditions: desulfurized diesel oil enriched with 10 g/l DBT, PEG-Cyt and hydrogen peroxide, GC FID/FPD
T1 construct: made in house
T1 sequence (P00004 2-105 limits assumed): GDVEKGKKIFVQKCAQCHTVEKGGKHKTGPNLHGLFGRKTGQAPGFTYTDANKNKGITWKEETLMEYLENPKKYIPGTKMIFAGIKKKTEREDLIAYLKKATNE
From the text: Desulfurized diesel oil (<0.05% of sulfur) is enriched with 10 g/l of DBT and treat with poly(ethylene)glycol-modified cytochrome c (PEG-Cyt) and hydrogen peroxide. […] DBT sulfoxide is an unstable compound which may be oxidized to form DBT sulfone. Cytochrome c is a biocatalyst able to oxidize thiophenes and organosulfides [Vazquez-Duhalt et al Enzyme Microb. Technol. 15 (1993) 494] and has several advantages when compared with other hemoenzymes. […] Technol. 15 (1993) 494; Vazquez-Duhalt et al Enzyme Microb. Technol. 15 (1993) 936.]. In addition, this biocatalyst can be modified by site-directed mutagenesis [E. Torres et al. Enzyme Microb. Technol. 17 (1995) 1014.] and by chemical modification [Tinoco and Vazquez-Duhalt. Enzyme Microb. Technol. 22 (1998) 8.] to improve both its catalytic activity and range of substrates. PEG-modified enzymes are soluble in organic solvents and their activity in organic solvents is increased because of the reduction of mass transfer limitations in the system [Vazquez-Duhalt et al. Enzyme Microb. Technol. 14 (1992) 837].

[2] = Biocatalytic oxidation of primary diesel fuel followed by distillation; conditions: chloroperoxidase treatment of primary diesel oil followed by distillation
Method: After biocatalytic oxidation of the fossil fuel a second process of separation of oxidized organosulfur compounds is envisaged. Because the boiling points of sulfur compounds are incersed after biocatlytic oxidation to sulfoxides, it is possible to remove them by a single distillation. Oxidized sulfur compounds can be removed by decreasing the final distillation point. When primary diesel fuel containing 1.6% sulfur is distilled in order to obtain a 100% distillation at a temperature 50° C. lower than the original fraction, it produces a diesel fuel containing 1.27% of sulfur and 83% of the original hydrocarbons. […] Thus, a biocatalytic treatment of primary diesel oil with chloroperoxidase from Caldariomyces fumago, followed by a distillation is able to reduce the sulfur content by 80%.

Molecule: c1ccc2c(c1)sc1ccccc12 [Dibenzothiophene]
- biocatalytic transformation of DBT [1]: transformed to DBT sulfoxide

B1: chloroperoxidase: chloroperoxidase (EC 1.11.1.10) from Caldariomyces fumago, hemoprotein biocatalyst (protein, UniProt P04963 21-319, looked up)
Chloroperoxidase: QEPGSGIGYPYDNNTLPYVAPGPTDSRAPCPALNALANHGYIPHDGRAISRETLQNAFLNHMGIANSVIELALTNAFVVCEYVTGSDCGDSLVNLTLLAEPHAFEHDHSFSRKDYKQGVANSNDFIDNRNFDAETFQTSLDVVAGKTHFDYADMNEIRLQRESLSNELDFPGWFTESKPIQNVESGFIFALVSDFNLPDNDENPLVRIDWWKYWFTNESFPYHLGWHPPSPAREIEFVTSASSAVLAASVTSTPSSLPSGAIGPGAEAVPLSFASTMTPFLLATNAPYYAQDPTLGPND
- reduction of sulfur content [2]: 80%
